Results from patent publication US20090048304A1, “Crystal Form of Besipirdine Chlorhydrate, Process Preparation and Use Thereof” (UROGENE, priority 2006, published 2009).
Read-outs that look alike come from different tables or passages of the source.

Key:
[1] = for Stability of the crystal form in maturation studies (summary in words): all tested conditions: 25, 50, 80 °C, 8 or 72 hours, n-butyl-acetate; for Form(s) identified after maturation: maturation time 8 hours, 100 mg suspension in 2 ml n-butyl-acetate
Experimental: 100 mg suspensions of the different polymorphic forms, separated or in mixtures, in 2 ml of n-butyl-acetate, were left for maturation during 8 or 72 hours at different temperatures.

[2] = storage conditions at room temperature, use and storing conditions of the powder
[3] = test system: bladder contractions induced by bladder irritation; conditions: in vivo, in rats; according to WO02/064126; cited from earlier work

SMILES: CCCN(c1ccncc1)n1ccc2ccccc21.Cl [Form III, N-propyl-N-(4-pyridinyl)-1H-indol-1-amine chlorhydrate]
- Stability of the crystal form in maturation studies (summary in words) [1]: quickly turns into form I

SMILES: CCCN(c1ccncc1)n1ccc2ccccc21.Cl [Form I, N-propyl-N-(4-pyridinyl)-1H-indol-1-amine chlorhydrate]
- Change of the polymorphic form with time on storage [2]: does not evolve with time
- Change of the polymorphic form with time on storage ([2]; listed as Polymorphic form I of besipirdine.HCl): thermodynamically the most stable of all characterized forms
- Stability of the crystal form in maturation studies (summary in words) [1]: stable
- Stability of the crystal form in maturation studies (summary in words) ([1]; listed as form I): thermodynamically the most stable of the three crystal forms

SMILES: CCCN(c1ccncc1)n1ccc2ccccc21.Cl [I + II, N-propyl-N-(4-pyridinyl)-1H-indol-1-amine chlorhydrate]
- Form(s) identified after maturation ([1]; 25 °C): I + II
- Form(s) identified after maturation ([1]; 50 °C): I + II
- Form(s) identified after maturation ([1]; 80 °C): I + II
- Stability of the crystal form in maturation studies (summary in words) ([1]; listed as mixture of forms I and II): changes towards form I

SMILES: CCCN(c1ccncc1)n1ccc2ccccc21.Cl [Form II, N-propyl-N-(4-pyridinyl)-1H-indol-1-amine chlorhydrate]
- Stability of the crystal form in maturation studies (summary in words) [1]: appears to be a stable form

SMILES: CCCN(c1ccncc1F)n1cc(C)c2ccccc21 [HP184, N-(3-fluoro-4-pyridinyl)-N-propyl-3-methyl-1H-indol-1-amine]
- Frequency of bladder contractions induced by bladder irritation [3]: slightly decrease the frequency of bladder contractions
